The source of these data is PMC9399588, “Effect of fluconazole on the pharmacokinetics of a single dose of fedratinib in healthy adults” (Cancer Chemotherapy and Pharmacology, 2022).

A short description of data set [1]: Phase 1 fixed-sequence drug-drug interaction study: plasma pharmacokinetics of single-dose fedratinib with and without fluconazole. It is filed as in vivo, human. The note with it: for Vd/F: read-out: Vz/F, geometric mean (geometric CV%); for half-life: read-out: t1/2 (terminal elimination), geometric mean (geometric CV%) (converted). An excerpt: This was an open-label Phase 1 study to evaluate the effect of multiple doses of fluconazole on the PK, safety, and tolerability of a single dose of fedratinib in healthy adult participants (NCT04702464). Healthy men and women aged 18–65 years with body mass index (BMI) ≥ 18 and ≤ 33 kg/m^2 at screening were enrolled at one site in the USA. Participants were confirmed to be healthy based on medical history, physical examination, clinical laboratory test results, vital signs, and 12-lead electrocardiogram (ECG) at screening and check-in (day − 1). Aspartate aminotransferase, alanine aminotransferase, and total bilirubin must have been at or below the upper limit of the reference range on or before check-in (day − 1). Other clinical parameters and laboratory results were either within normal range or deemed not clinically significant by the investigator. Women of childbearing potential were required to have a negative pregnancy test result and to use birth control.
This was a non-randomized, fixed-sequence, open-label study consisting of a screening phase, treatment phase (including baseline), and follow-up telephone call (Fig. 1). The fixed-sequence crossover design of this study was selected to remove intersubject variability from comparison between treatments. Healthy participants were chosen to mitigate the potential confounding effects of disease state or other concomitant medications likely to be present in a population of patients with myelofibrosis.
Participants resided at the clinical site from day − 1 to day 27. A single oral dose of fedratinib 100 mg was administered under fasted conditions on day 1. Participants received fluconazole 400 mg on day 10 and fluconazole 200 mg once daily on days 11–23. On day 18, participants received a single oral dose of fedratinib 100 mg, under fasted conditions, with fluconazole 200 mg. No food or beverages (except water) were allowed for at least 4 h after dosing; water was allowed as desired except for 1 h before and 1 h after each dose. Participants received ondansetron 8 mg by mouth approximately 1 h before each fedratinib administration to reduce the potential for fedratinib-related nausea and vomiting, with the option of a subsequent oral dose(s) of ondansetron as necessary. Fluconazole is not expected to have a clinically meaningful impact on the PK of ondansetron as ondansetron is metabolized by multiple enzymes including CYP1A1/2, CYP3A4, and CYP2D6 [28]. […] Participants were discharged from the clinical site on day 27 and received a follow-up telephone call 4 days (± 2 days) after discharge. In the event that participants discontinued the study for any reason, an early termination (ET) visit was performed. Only safety assessments scheduled for the day of discharge were performed at the ET visit. Participants who discontinued the study also received a follow-up telephone call 4 days (± 2 days) after discharge. Participants who discontinued the study due to inclement weather returned to the clinic to complete the ET visit at a later date.
On days 1 and 18, blood samples for determination of fedratinib plasma concentrations were collected before each dose and 0.5, 1, 1.5, 2, 3, 4, 6, 8, 12, 24, 48, 72, 120, 168, and 216 h post-dose. Plasma fedratinib concentrations were measured using a validated liquid chromatography–tandem mass spectrometry assay with a lower limit of quantification (LLOQ) of 1.00 ng/mL [19].
Plasma PK parameters were calculated using noncompartmental methods. The PK parameters determined for fedratinib were maximum observed plasma concentration (Cmax), time to Cmax (Tmax), AUC from time 0 to the time of the last quantifiable concentration (AUC0–t), AUC from time 0 to infinity (AUC0–∞), terminal elimination t1/2, apparent total plasma clearance (CL/F), and apparent total volume of distribution during the terminal phase (Vz/F). […]

Another data set relates to CYP2C19 (liver). Also noted: method as in PMID 32886148. The conditions noted are these: after first dose of 400 mg once-daily fedratinib, healthy participants; cited from earlier work.
For data set [2] the following is noted: in vivo; cited from earlier work.
Another data set concerns myelofibrosis. Also noted: method as in PMID 34331348. The note with it: double-blind Phase 3, NCT01437787; cited from earlier work.
On the set-up of data set [3]: method as in PMID 32248324. The conditions noted are these: cited from earlier work.
The test system of another data set is CYP3A4. Also noted: method as in PMID 32886148. The conditions noted are these: 0.1 μM fedratinib, different hepatocyte preparations; cited from earlier work.
For data set [4] the following is noted: cited from earlier work.
Data set [5] in a line: Safety and tolerability assessment (adverse event monitoring) in the Phase 1 study. It is filed as in vivo, human. How it is done:
Safety assessments included adverse event (AE) monitoring, review of concomitant medications and procedures, physical examinations, vital signs measurements, 12-lead ECGs, and clinical laboratory safety tests. All AEs were recorded from the time of informed consent until study completion, and up to 30 days after the last dose of fluconazole if reported to the investigator.

On the set-up of data set [6]: method as in PMID 32748109. The note with it: healthy adult men, oral dose of [14C]-fedratinib 200 mg; cited from earlier work.
On the set-up of data set [7]: method as in PMID 32886148. The conditions noted are these: PBPK simulations; cited from earlier work.
Another data set concerns CYP3A4 (liver). Also noted: method as in PMID 32886148. The note with it: after first dose of 400 mg once-daily fedratinib, healthy participants; cited from earlier work.
Details of data set [8]: method as in PMID 34019108. The note with it: healthy adults; cited from earlier work.
On the set-up of data set [9]: method as in PMID 12867217. The note with it: cited from earlier work.
Details of data set [10]: method as in PMID 31324935. The conditions noted are these: cited from earlier work.
The mark [11] stands for this setting: compared with fedratinib alone, single oral dose 100 mg.
Where [12] appears, read: fedratinib 100 mg + fluconazole 200 mg once daily (test) vs fedratinib 100 mg (reference).
[13] abbreviates: healthy men, single dose fedratinib 300 mg with ketoconazole vs alone.

“And” between values parts separate entries of the source, which are not always exact repeats. Identical values can stand only once. Like-named read-outs stand apart in the source and are kept apart here.

As a reminder, the Cmax is the maximum level reached in the sampled fluid or tissue. For orientation: Tmax means the time from dosing to the highest level.

`Cc1cnc(Nc2ccc(OCCN3CCCC3)cc2)nc1Nc1cccc(S(=O)(=O)NC(C)(C)C)c1` [fedratinib]: the “Tmax median difference between fedratinib with fluconazole and fedratinib alone” value in data set [1] (Hodges–Lehmann estimate, 90% CI 0.00–1.00, p = 0.156) is listed as 0.5 h. The AUC(0-inf) in data set [1] (both sexes, human, plasma, oral, 100 mg fedratinib + 200 mg fluconazole once daily (test), n = 5, read-out: AUC0–∞, geometric mean from ANOVA model) was 4100 ng·h/mL; in data set [1] (both sexes, human, plasma, oral, 100 mg, 100 mg fedratinib (reference), n = 7, read-out: AUC0–∞, geometric mean from ANOVA model), 2410 ng·h/mL; in [1] (both sexes, human, plasma, oral, fedratinib 100 mg + fluconazole 200 mg once daily, n = 5, read-out: AUC0–∞, geometric mean (geometric CV%)), 4200 ng·h/mL; in [1] (both sexes, human, plasma, po, 100 mg, fedratinib 100 mg single oral dose alone, n = 7, read-out: AUC0–∞, geometric mean (geometric CV%)), 2360 ng·h/mL. The AUC(0-t) was determined as 1900 ng·h/mL in data set [1] (both sexes, human, plasma, oral, 100 mg fedratinib (reference), n = 16, read-out: AUC0–t, geometric mean from ANOVA model); 2970 ng·h/mL in data set [1] (both sexes, human, plasma, oral, fedratinib 100 mg + fluconazole 200 mg once daily, n = 16, read-out: AUC0–t, geometric mean (geometric CV%)); 1900 ng·h/mL in data set [1] (both sexes, human, plasma, fedratinib 100 mg single oral dose alone, n = 16, read-out: AUC0–t, geometric mean (geometric CV%)). Moreover, the Cmax in [1] (both sexes, human, plasma, oral, 100 mg fedratinib (reference), n = 16, read-out: Cmax, geometric mean from ANOVA model) was 121 ng/mL; in [1] (both sexes, human, plasma, oral, 100 mg fedratinib + 200 mg fluconazole once daily (test), n = 16, read-out: Cmax, geometric mean from ANOVA model), 146 ng/mL; in [1] (both sexes, human, plasma, fedratinib 100 mg single oral dose + fluconazole 200 mg once daily, healthy adults, n = 16, read-out: Cmax, geometric mean (geometric CV%)), 146 ng/mL; in data set [1] (both sexes, human, plasma, fedratinib 100 mg single oral dose alone, fasted, healthy adults, n = 16, read-out: Cmax, geometric mean (geometric CV%)), 121 ng/mL. In addition, the Vd/F in [1] (both sexes, human, plasma, oral, fedratinib 100 mg + fluconazole 200 mg once daily, n = 5) came out at 3560 L; in [1] (both sexes, human, plasma, fedratinib 100 mg single oral dose alone, n = 7), 6500 L. The half-life in [1] (both sexes, human, plasma, oral, fedratinib 100 mg + fluconazole 200 mg once daily, n = 16) was 138 h; in [1] (both sexes, human, plasma, fedratinib 100 mg single oral dose alone, n = 16), 125 h. In addition, the Tmax in data set [1] (both sexes, human, plasma, fedratinib 100 mg single oral dose alone, n = 16, read-out: Tmax, median (min, max)) turned out to be 2 h. Also, the “Increase in fedratinib AUC0–t on coadministration with fluconazole” value in data set [1] (setting [11]) is reported as 56%. Also, the “Increase in fedratinib Cmax on coadministration with fluconazole” value in data set [1] (setting [11]) stood at 21%. In addition, the “AUC0–t: ratio (%) of geometric LS means, test/reference (90% CI)” value in [1] (setting [12]) was 156% and 156 (145, 168) %. For the same compound, the “Cmax: ratio (%) of geometric LS means, test/reference (90% CI)” value in [1] (setting [12]) is 121% and 121 (108, 135) %. Besides, the “AUC0–∞: ratio (%) of geometric LS means, test/reference (90% CI)” value in [1] (fedratinib 100 mg + fluconazole 200 mg once daily (test, n = 5) vs fedratinib 100 mg (reference, n = 7)) is reported as 170 (143, 202) %. Moreover, the “CL/F, geometric mean (geometric CV%)” value in [1] (fedratinib 100 mg + fluconazole 200 mg once daily, n = 5) was 23.8 (40.2) L/h; in data set [1] (fedratinib 100 mg single oral dose alone, n = 7) it was 42.3 (21.9) L/h. Further, the “Tmax, median (min, max)” value in data set [1] (fedratinib 100 mg + fluconazole 200 mg once daily, n = 16) was 2.00 (1.02, 6.00) h. Besides, the “Difference in terminal t1/2 of fedratinib alone vs in combination with fluconazole” value in data set [1] (in vivo) is “no significant difference”. Besides, the “Increase in fedratinib exposure by fluconazole (in words)” value in data set [1] (observed in this study) is recorded as “less than twofold increase”. In addition, the “Increase in systemic exposure to fedratinib on coadministration with fluconazole” value in data set [1] (single oral dose, compared with fedratinib alone) was “up to 56%”. Also, the “Mean fraction of metabolism or excretion in relation to systemic clearance” value in the data set with CYP2C19 (liver) is reported as 16%; in the data set with CYP3A4 (liver), 64%. Moreover, the “Tolerability of single doses” value in [2] is recorded as “generally well tolerated”. Further, the “Proportion of patients reaching primary (≥ 35% reduction in spleen volume) and secondary (≥ 50% reduction in symptom score) endpoints vs placebo” value in the data set on myelofibrosis is given as “greater proportion”. For the same compound, the “Effect of ketoconazole coadministration on fedratinib Tmax” value in [3] was “no effect on Tmax”. The “Increase in fedratinib AUC0–t by ketoconazole” value in data set [3] (setting [13]) is on record as 3.20 fold. Further, the “Increase in fedratinib Cmax by ketoconazole” value in [3] (setting [13]) is on record as 1.93 fold. Moreover, in the data set on CYP3A4, the “CYP3A4 share of the total CYP contribution to metabolism” value was 0–67%. In addition, the “Effective t1/2” value is “around 40 h” in [4]; ~ 40 h in data set [4] (healthy participants and patients with myelofibrosis). In data set [4], the “Terminal elimination half-life (t1/2)” value is recorded as “around 114 h”. The “Participants with treatment-emergent adverse events (TEAEs)” value worked out at 10.3% in [5] (during treatment with fedratinib 100 mg alone, 3 participants) and 6.3% in [5] (during treatment with fedratinib 100 mg plus fluconazole 200 mg, 1 participant). The “Tolerability of single oral doses” value in data set [5] (fedratinib 100 mg with or without fluconazole, healthy adults) is listed as “well tolerated”. Also, the “Share of total circulating drug in plasma accounted for by fedratinib” value in data set [6] is “approximately 80%”. The “Predicted increase in fedratinib exposure on coadministration of fluconazole (dual CYP2C19 and CYP3A4 inhibitor) vs fedratinib alone” value in [7] is listed as “up to a fourfold increase”. Also, the “Effect of CYP3A4 inducers rifampin and efavirenz on fedratinib exposure” value in data set [8] is recorded as “decrease fedratinib exposure”.
As for `OC(Cn1cncn1)(Cn1cncn1)c1ccc(F)cc1F` [fluconazole], the “Participants with treatment-emergent adverse events (TEAEs)” value in data set [5] (during treatment with fluconazole 200 mg alone, 2 participants) is recorded as 7.4%.
Consider `Cc1nccn1CC1CCc2c(c3ccccc3n2C)C1=O` (stereo not drawn) [ondansetron], for which, in data set [9], the “Change in AUC on coadministration with the moderate CYP3A inhibitor aprepitant” value is “no clinically significant change”.
Regarding `N#CC[C@H](C1CCCC1)n1cc(-c2ncnc3[nH]ccc23)cn1` [ruxolitinib], the “Increase in exposure on coadministration with fluconazole” value in data set [10] is reported as 234%.
